In a compilation of properties of binary mixtures (doi:10.1021/je100671v):

Assay: xn = mol fraction of the nth substance listed
Conditions: 101.3 kPa

CCCCCCCC(=O)[O-].c1c[nH+]c[nH]1 + CC#N
viscosity [mPa·s]
Conditions	x2 = 0	x2 = 0.1044	x2 = 0.1986	x2 = 0.298	x2 = 0.4005	x2 = 0.499	x2 = 0.5995	x2 = 0.6924	x2 = 0.7988	x2 = 0.8996
293.15 K	88.5	66	50.42	–	25.96	–	–	5.8	2.747	–
298.15 K	71.3	54.3	41.88	32	22.7	16.11	10	6.3	3.3	1.199
303.15 K	–	–	35.3	27.47	20.17	14.67	–	5.6	2.402	1.21
308.15 K	45.3	37	30.04	23.68	17.89	–	8.4	5.5	2.808	1.241
313.15 K	36.92	31.4	26.1	20.83	15.6	11.4	7.4	4.4	2.23	1.397
318.15 K	30.56	26.31	22.3	–	–	10.7	7.51	5.1	3.1	1.77
323.15 K	25.33	22.52	19.55	16.21	13.2	–	–	5.38	3.223	1.6

CCCCCCCC(=O)[O-].c1c[nH+]c[nH]1 + CCCCCCCCO
viscosity [mPa·s]
Conditions	x2 = 0	x2 = 0.1011	x2 = 0.1999	x2 = 0.2991	x2 = 0.4	x2 = 0.5007	x2 = 0.6005	x2 = 0.6999	x2 = 0.799	x2 = 0.8997
293.15 K	88.5	78	64.4	51.03	–	30.85	–	18	13.4	10.5
298.15 K	71.3	63.2	52.31	41.9	–	–	–	15.39	11.7	–
303.15 K	56.48	50.26	42.2	34.44	27.5	21.67	–	13.24	10	8.33
308.15 K	45.3	–	34.63	28.56	23.23	18.76	14.95	–	9.4	7.64
313.15 K	36.92	33.14	28.5	23.44	19.4	15.57	–	9.79	7.5	5.94
318.15 K	30.56	–	23.63	19.8	16.4	13.05	10.7	8.46	–	–
323.15 K	25.33	–	20.17	–	14.21	11.6	9.4	7.48	5.9	–

CCCCCCCC(=O)[O-].c1c[nH+]c[nH]1 + CCO
viscosity [mPa·s]
Conditions	x2 = 0	x2 = 0.1043	x2 = 0.1984	x2 = 0.301	x2 = 0.4	x2 = 0.4786	x2 = 0.5999	x2 = 0.7006	x2 = 0.7999	x2 = 0.8989
293.15 K	88.5	68.7	–	–	29.8	22.9	–	10.32	6.03	3.236
298.15 K	71.3	55.78	44.5	34	25.5	20	13.3	9.32	5.47	–
303.15 K	56.48	–	36.53	28.9	22.3	17.8	–	8.4	4.93	–
308.15 K	45.3	36.81	30.43	24.8	19.9	16.4	11.4	7.77	4.54	2.471
313.15 K	–	31	26.09	–	17.2	14	–	–	4.19	2.278
318.15 K	30.56	26.2	22.4	18.8	15.3	12.6	–	6.3	3.96	–
323.15 K	25.33	22.3	19.6	16.7	14.1	12	8.9	6.4	4.43	–

CCCCCCCC(=O)[O-].c1c[nH+]c[nH]1 + O
viscosity [mPa·s]
Conditions	x2 = 0	x2 = 0.0989	x2 = 0.1964	x2 = 0.3042	x2 = 0.4091	x2 = 0.5119	x2 = 0.6017	x2 = 0.6643	x2 = 0.7995	x2 = 0.8154
293.15 K	88.5	67.9	58.6	–	–	45.7	–	34.9	22.18	20.63
298.15 K	71.3	54.06	46.3	43.3	41.1	–	32.99	29.09	–	17.59
303.15 K	56.48	41.7	36.57	–	33	30.4	27.23	–	16	14.75
308.15 K	45.3	33.19	29.22	27.6	26.5	25	22.3	20.32	13.52	12.62
313.15 K	36.92	27.32	–	22.8	21.89	20.82	18.94	17.17	11.72	–
318.15 K	30.56	–	20.39	–	18.6	17.87	–	14.9	10.4	–
323.15 K	–	–	17.55	–	16.17	15.72	14.35	13.4	9.76	–

CC#N + c1c[nH+]c[nH]1.CCCCCCCC(=O)[O-]
x1 = 1
Conditions	viscosity [mPa·s]
293.15 K	0.35
303.15 K	0.325
308.15 K	0.292
313.15 K	0.279
318.15 K	0.245

CCCCCCCCO + c1c[nH+]c[nH]1.CCCCCCCC(=O)[O-]
x1 = 1
Conditions	viscosity [mPa·s]
298.15 K	7.84
303.15 K	6.42
308.15 K	5.34
313.15 K	4.66
318.15 K	3.7
323.15 K	2.84

CCO + c1c[nH+]c[nH]1.CCCCCCCC(=O)[O-]
x1 = 1
Conditions	viscosity [mPa·s]
298.15 K	1.1
308.15 K	0.91
313.15 K	0.83
318.15 K	0.72
323.15 K	0.615

O + c1c[nH+]c[nH]1.CCCCCCCC(=O)[O-]
x1 = 1
Conditions	viscosity [mPa·s]
298.15 K	0.89
303.15 K	0.797
323.15 K	0.556
